According to patent publication US20260184712A1, “Heterocyclic Compounds as ENT Inhibitors and Compounds for Use in the Treatment of Cancers” (iTeos Belgium SA, priority 2022, published 2026):

Test system: stimulated primary human T cells
Assay: T cell proliferation assay, Condition B (X-VIVO15, 2% HSA and 0.1% AAG)
Type: cell-based
Conditions: Homo sapiens, T-cell, 96 h; Condition B: X-VIVO15 medium containing HSA and α1-Acid Glycoprotein; anti-CD3/anti-CD28 beads, ATP, 4 days; CFSE-lo T cells
Procedure, shortened: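 CFSE-labelled CD3+ T cells from healthy donors (2×10^4/well) in X-VIVO15 with 2% HSA and 0.1% AAG were stimulated with anti-CD3/CD28 beads. After 30 min pre-incubation with inhibitor, ATP was added and cells were cultured 4 days at 37° C. Flow cytometry gave % CFSE^lo cells, with IC50/IC90 and pICF from curve fits.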

`C[C@H]1O[C@@H](n2c(NC3CCCC3)nc3c(OCc4ccc([N+](=O)[O-])cc4)ncnc32)[C@H](O)[C@@H]1O` [Compound 6] and `C[C@H]1O[C@@H](n2c(NC3CCC(O)CC3)nc3c(OCc4ccc([N+](=O)[O-])cc4)ncnc32)[C@H](O)[C@@H]1O` (stereo partly shown) [Compound 28] fall in the same range of IC50: 1 to 20 nM for the first, 1 to 20 nM for the second.

`C[C@H]1O[C@@H](n2c(NC3CCOCC3)nc3c(OCc4ccc(C#N)cc4)ncnc32)[C@H](O)[C@@H]1O` [Compound 73] and `C[C@H]1O[C@@H](n2c(N[C@H]3CCC(F)(F)C3)nc3c(OCc4ccc(C#N)cc4)ncnc32)[C@H](O)[C@@H]1O` [Compound 82] fall in the same range of IC50: 20 to 500 nM for the first, 20 to 500 nM for the second.

`C[C@H]1O[C@@H](n2c(NC3CCOCC3)nc3c(OCc4ccc(OC(F)F)nc4)ncnc32)[C@H](O)[C@@H]1O` [Compound 75] and `C[C@H]1O[C@@H](n2cnc3c(OCc4ccc(OC(F)F)cc4)ncnc32)[C@H](O)[C@@H]1O` [Compound 173] fall in the same range of IC50: 20 to 500 nM for the first, 20 to 500 nM for the second.

`C[C@H]1O[C@@H](n2cnc3c(SCc4ccc([N+](=O)[O-])cc4)ncnc32)[C@H](O)[C@@H]1O` [Compound 147] and `C[C@H]1O[C@@H](n2cnc3c(OCc4ccc([N+](=O)[O-])cc4)ncnc32)[C@H](O)[C@@H]1O` [Compound 166] fall in the same range of IC50: 20 to 500 nM for the first, 20 to 500 nM for the second.

`C[C@H]1O[C@@H](n2cnc3c(N4CCc5ccc([N+](=O)[O-])cc5C4)ncnc32)[C@H](O)[C@@H]1O` [Compound 151] and `OCCOC[C@H]1O[C@@H](n2cnc3c(OCc4ccc(OC(F)(F)F)cc4)ncnc32)[C@H](O)[C@@H]1O` [Compound 175] fall in the same range of IC50: 20 to 500 nM for the first, 20 to 500 nM for the second.
